Molecules are shown by their SMILES.

Holding throughout (assay type): cell-based
The target in experiment [1] is T1, human TLR7 (Homo sapiens, UniProt Q9NYK1).
T1 construct: host or cells: HEK-Blue cells
T1 sequence (Q9NYK1 27-1049): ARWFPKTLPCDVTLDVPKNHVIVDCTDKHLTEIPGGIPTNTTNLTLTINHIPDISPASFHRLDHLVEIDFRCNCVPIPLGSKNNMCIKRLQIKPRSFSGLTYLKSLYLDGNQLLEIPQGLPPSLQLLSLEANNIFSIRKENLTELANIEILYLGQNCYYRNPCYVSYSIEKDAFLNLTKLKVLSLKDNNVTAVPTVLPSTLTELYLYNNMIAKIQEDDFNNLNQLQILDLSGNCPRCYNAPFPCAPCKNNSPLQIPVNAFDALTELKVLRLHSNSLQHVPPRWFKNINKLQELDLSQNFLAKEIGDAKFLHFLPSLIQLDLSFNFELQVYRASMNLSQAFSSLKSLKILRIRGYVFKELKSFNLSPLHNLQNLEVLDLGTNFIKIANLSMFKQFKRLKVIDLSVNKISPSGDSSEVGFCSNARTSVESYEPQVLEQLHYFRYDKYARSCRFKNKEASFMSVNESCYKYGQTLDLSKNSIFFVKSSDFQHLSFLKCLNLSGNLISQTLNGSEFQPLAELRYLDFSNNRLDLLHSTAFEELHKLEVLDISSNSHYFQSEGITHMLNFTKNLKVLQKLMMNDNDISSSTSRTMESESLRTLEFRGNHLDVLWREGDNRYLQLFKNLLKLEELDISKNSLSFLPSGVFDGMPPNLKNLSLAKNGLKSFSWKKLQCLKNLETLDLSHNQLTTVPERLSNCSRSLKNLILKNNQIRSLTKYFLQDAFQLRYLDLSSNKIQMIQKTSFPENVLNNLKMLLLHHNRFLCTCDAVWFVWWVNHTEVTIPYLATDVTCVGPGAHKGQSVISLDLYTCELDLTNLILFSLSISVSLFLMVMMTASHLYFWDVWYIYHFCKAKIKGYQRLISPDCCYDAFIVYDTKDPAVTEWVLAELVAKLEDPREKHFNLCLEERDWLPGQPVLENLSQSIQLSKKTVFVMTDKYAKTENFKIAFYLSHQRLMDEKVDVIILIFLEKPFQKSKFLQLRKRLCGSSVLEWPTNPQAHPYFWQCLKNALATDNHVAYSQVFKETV
Nature of the experiment: TLR7 inhibition reporter assay (HEK-Blue SEAP). The conditions noted are these: cells overexpressing human TLR7, SEAP reporter, stimulated with gardiquimod 7.5 μM, 22 hour incubation. As for the experimental part: (§1) TLR7/8/9 Inhibition Reporter Assays
(§2) […] (Invivogen) overexpressing human TLR7, TLR8 or TLR9 receptors were used for screening inhibitors of these receptors using an inducible SEAP (secreted embryonic alkaline phosphatase) reporter gene under the control of the IFN-β minimal promoter fused to five NF-κB and AP-1-binding sites. Briefly, cells are seeded into Greiner 384 well plates (15000 cells per well for TLR7, 20,000 for TLR8 and 25,000 for TLR9) and then treated with test compounds in DMSO to yield a final dose response concentration range of 0.05 nM-50 μM. After a 30 minute compound pre-treatment at room temperature, the cells are then stimulated with a TLR7 ligand (gardiquimod at a final concentration of 7.5 μM). TLR8 ligand (R848 at a final concentration of 15.9 μM) or TLR9 ligand (ODN2006 at a final concentration of 5 nM) to activate NF-κB and AP-1 which induce the production of SEAP. After a 22 hour incubation at 37° C., 5% CO2, SEAP levels are determined with the addition of HEK-Blue™ Detection reagent (Invivogen), a cell culture medium that allows for detection of SEAP, according to manufacturer's specifications. The percent inhibition is determined as the % reduction in the HEK-Blue signal present in wells treated with agonist plus DMSO alone compared to wells treated with a known inhibitor.
(In general: In a reporter assay the amount or activity of a reporter protein is the signal.)

Experiment [2] deals with T2, human TLR8 (Homo sapiens, UniProt Q9NR97).
T2 construct: host or cells: HEK-Blue cells
T2 sequence (Q9NR97 27-1041): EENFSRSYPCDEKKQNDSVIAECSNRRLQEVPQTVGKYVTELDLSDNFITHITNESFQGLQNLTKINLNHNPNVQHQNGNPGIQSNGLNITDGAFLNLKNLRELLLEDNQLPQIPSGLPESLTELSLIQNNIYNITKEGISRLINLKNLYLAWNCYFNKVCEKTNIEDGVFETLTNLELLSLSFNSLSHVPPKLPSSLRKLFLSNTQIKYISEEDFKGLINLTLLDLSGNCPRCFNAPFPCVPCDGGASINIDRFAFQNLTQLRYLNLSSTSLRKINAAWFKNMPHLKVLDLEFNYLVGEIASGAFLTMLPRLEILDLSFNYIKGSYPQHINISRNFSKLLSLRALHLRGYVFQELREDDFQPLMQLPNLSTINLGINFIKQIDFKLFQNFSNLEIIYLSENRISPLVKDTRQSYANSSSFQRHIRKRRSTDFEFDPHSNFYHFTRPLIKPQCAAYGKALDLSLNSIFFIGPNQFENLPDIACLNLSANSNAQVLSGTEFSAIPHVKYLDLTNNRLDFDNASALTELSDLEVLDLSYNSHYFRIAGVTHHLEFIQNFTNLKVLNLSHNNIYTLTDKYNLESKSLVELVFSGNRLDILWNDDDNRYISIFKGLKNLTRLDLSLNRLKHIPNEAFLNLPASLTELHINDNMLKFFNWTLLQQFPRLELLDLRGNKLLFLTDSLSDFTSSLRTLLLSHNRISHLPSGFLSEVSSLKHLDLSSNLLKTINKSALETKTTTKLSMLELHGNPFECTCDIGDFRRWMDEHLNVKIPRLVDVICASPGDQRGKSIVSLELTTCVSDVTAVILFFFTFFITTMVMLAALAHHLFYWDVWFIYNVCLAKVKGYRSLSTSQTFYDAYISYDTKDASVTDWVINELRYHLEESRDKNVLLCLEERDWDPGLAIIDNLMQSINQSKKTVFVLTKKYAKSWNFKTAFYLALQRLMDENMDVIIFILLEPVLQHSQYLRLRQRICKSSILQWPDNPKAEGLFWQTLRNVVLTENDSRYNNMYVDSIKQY
Briefly: TLR8 inhibition reporter assay (HEK-Blue SEAP). The note with it: cells overexpressing human TLR8, SEAP reporter, stimulated with R848 15.9 μM, 22 hour incubation. As for the experimental part: as §1, §2

For experiment [3], the target named is T3, human TLR9 (Homo sapiens, UniProt Q9NR96).
T3 construct: host or cells: HEK-Blue cells
T3 sequence (Q9NR96 26-1032): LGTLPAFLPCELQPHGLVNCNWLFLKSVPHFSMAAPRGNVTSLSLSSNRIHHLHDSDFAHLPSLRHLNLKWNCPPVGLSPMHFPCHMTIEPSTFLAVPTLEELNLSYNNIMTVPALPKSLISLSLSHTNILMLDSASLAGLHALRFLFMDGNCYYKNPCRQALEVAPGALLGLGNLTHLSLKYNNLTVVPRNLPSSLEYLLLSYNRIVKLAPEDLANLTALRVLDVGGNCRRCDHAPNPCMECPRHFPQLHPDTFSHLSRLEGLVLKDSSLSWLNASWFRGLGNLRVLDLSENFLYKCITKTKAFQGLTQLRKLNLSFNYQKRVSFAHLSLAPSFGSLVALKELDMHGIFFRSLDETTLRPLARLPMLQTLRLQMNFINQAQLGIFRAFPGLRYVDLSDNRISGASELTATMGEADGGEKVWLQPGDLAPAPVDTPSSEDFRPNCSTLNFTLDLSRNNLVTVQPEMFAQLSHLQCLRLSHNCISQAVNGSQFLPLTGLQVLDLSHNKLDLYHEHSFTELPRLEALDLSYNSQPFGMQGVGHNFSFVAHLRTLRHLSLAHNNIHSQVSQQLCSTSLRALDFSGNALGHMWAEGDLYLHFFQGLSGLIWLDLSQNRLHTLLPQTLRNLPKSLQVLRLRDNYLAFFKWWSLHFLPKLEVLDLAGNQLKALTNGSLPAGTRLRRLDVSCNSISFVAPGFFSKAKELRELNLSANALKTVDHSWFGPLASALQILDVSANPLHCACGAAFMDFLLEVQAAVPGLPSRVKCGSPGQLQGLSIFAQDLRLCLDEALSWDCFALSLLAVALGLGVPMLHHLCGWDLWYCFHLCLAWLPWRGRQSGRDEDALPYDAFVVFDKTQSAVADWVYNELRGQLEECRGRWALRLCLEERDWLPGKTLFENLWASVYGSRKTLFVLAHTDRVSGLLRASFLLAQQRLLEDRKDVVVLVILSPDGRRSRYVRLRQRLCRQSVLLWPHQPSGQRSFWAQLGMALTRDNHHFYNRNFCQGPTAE
Briefly: TLR9 inhibition reporter assay (HEK-Blue SEAP). The note with it: cells overexpressing human TLR9, SEAP reporter, stimulated with ODN2006 5 nM, 22 hour incubation. As for the experimental part: as §1, §2

In general, IC50 refers to the concentration at which inhibition is half-maximal. Read a high IC50 as lower potency. Turning to `Cc1cc(-c2[nH]c3cnc(C4CCNCC4)nc3c2C(C)C)cn(C)c1=O` [Example 7, 5-(7-isopropyl-2-(piperidin-4-yl)-5H-pyrrolo[3,2-d]pyrimidin-6-yl)-1,3-dimethylpyridin-2(1H)-one], the values for the IC50 in experiment [1], in experiment [2] and in experiment [3] were less than 100 nM, 100 to 1000 nM and 1000 to 50000 nM, respectively.
For `CCc1c(-c2ccc(OC)c(OC)c2)[nH]c2cnc(C3CCN(C4CCN(C(C)C)CC4)CC3)nc12` [Example 26, 6-(3,4-dimethoxyphenyl)-7-ethyl-2-(1′-isopropyl-[1,4′-bipiperidin]-4-yl)-5H-pyrrolo[3,2-d]pyrimidine], in that order: less than 100 nM, less than 100 nM and 100 to 1000 nM.
For `CCc1c(-c2ccc(OC)c(OC)c2)[nH]c2cnc(-c3nnc(N)o3)nc12` [Example 53, 5-(6-(3,4-dimethoxyphenyl)-7-ethyl-5H-pyrrolo[3,2-d]pyrimidin-2-yl)-1,3,4-oxadiazol-2-amine], in that order: greater than 50000 nM, 1000 to 50000 nM and greater than 50000 nM.
For `Cc1cc(-c2[nH]c3cnc(C4CCN(C(=O)CN(C)C)CC4)nc3c2C(C)C)cn(C)c1=O` [Example 33, 5-(2-(1-(dimethylglycyl)piperidin-4-yl)-7-isopropyl-5H-pyrrolo[3,2-d]pyrimidin-6-yl)-1,3-dimethylpyridin-2(1H)-one], in that order: less than 100 nM, 100 to 1000 nM and 1000 to 50000 nM.
On to `CCc1c(-c2ccc(OC)c(OC)c2)[nH]c2cnc(-c3nnc([C@@H]4CCNC4)o3)nc12` [Example 41, (R)-2-(6-(3,4-dimethoxyphenyl)-7-ethyl-5H-pyrrolo[3,2-d]pyrimidin-2-yl)-5-(pyrrolidin-3-yl)-1,3,4-oxadiazole], for which the IC50 in experiment [1], in experiment [2] and in experiment [3] was 1000 to 50000 nM in each case.
For `Cc1cc(-c2[nH]c3cnc(C4CCN(C5CCOCC5)CC4)nc3c2C(C)C)cn(C)c1=O` [Example 21, 5-(7-isopropyl-2-(1-(tetrahydro-2H-pyran-4-yl)piperidin-4-yl)-5H-pyrrolo[3,2-d]pyrimidin-6-yl)-1,3-dimethylpyridin-2(1H)-one], the half-maximal inhibitory concentration (IC50) is less than 100 nM in experiment [1], less than 100 nM in experiment [2] and 100 to 1000 nM in experiment [3].
For `CCc1c(-c2ccc(OC)c(OC)c2)[nH]c2nnc(C3CCN(C4CCN(C(C)C)CC4)CC3)cc12` [Example 2, 6-(3,4-dimethoxyphenyl)-5-ethyl-3-(1′-isopropyl-[1,4′-bipiperidin]-4-yl)-7H-pyrrolo[2,3-c]pyridazine], the IC50 in experiment [1], in experiment [2] and in experiment [3] was 100 to 1000 nM throughout.
On to `CCc1c(-c2ccc(OC)c(OC)c2)[nH]c2cnc(-c3nnc(CNC)o3)nc12` [Example 42, 1-(5-(6-(3,4-dimethoxyphenyl)-7-ethyl-5H-pyrrolo[3,2-d]pyrimidin-2-yl)-1,3,4-oxadiazol-2-yl)-N-methylmethanamine], for which the IC50 fell in the range of 1000 to 50000 nM in experiment [1], 100 to 1000 nM in experiment [2] and 1000 to 50000 nM in experiment [3].
Consider `CCc1c(-c2ccc(OC)c(OC)c2)[nH]c2cnc(C3CCN(Cc4nc(C)c[nH]4)CC3)nc12` [Example 52, 6-(3,4-dimethoxyphenyl)-7-ethyl-2-(1-((4-methy 1H-imidazol-2-yl)methyl)piperidin-4-yl)-5H-pyrrolo[3,2-d]pyrimidine], for which the results for the IC50 in experiment [1], in experiment [2] and in experiment [3] were 100 to 1000 nM, less than 100 nM and 1000 to 50000 nM, respectively.
The like results for `Cc1c(-c2[nH]c3cnc(C4CCN(C5CCOCC5)CC4)nc3c2C(C)C)cn2ncnc2c1C` [Example 13, 6-(7-isopropyl-2-(1-(tetrahydro-2H-pyran-4-yl)piperidin-4-yl)-5H-pyrrolo[3,2-d]pyrimidin-6-yl)-7,8-dimeihyl-[1,2,4]triazolo[1,5-a]pyridine] were, in that order, less than 100 nM, less than 100 nM and 1000 to 50000 nM.
The like results for `CCc1c(-c2ccc(OC)c(OC)c2)[nH]c2ncc(C3CCNCC3)nc12` [Example 3, 6-(3,4-dimethoxyphenyl)-7-ethyl-2-(piperidin-4-yl)-5H-pyrrolo[2,3-b]pyrazine] were, in that order, 100 to 1000 nM, 100 to 1000 nM and 100 to 1000 nM.

The values are drawn from patent US11299501B2 (BRISTOL-MYERS SQUIBB COMPANY, priority 2017, dated 2022).
